The text below walks through data of PubChem BioAssay (NCI).

Test systems include DMS 114 small cell lung; LXFL 529 NSCLC; M19-MEL melanoma; RXF-631 renal; SNB-78 CNS; XF 498 CNS; MDA-N; DMS 273 small cell lung; HOP-18 NSCLC; SN12K1 renal.
What all share (experiment): inhibition of tumour cell growth, NCI panel, 48 h

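Cells were grown in 96-well plates and exposed to each compound for 48 hours at five concentrations; endpoints were interpolated linearly between bracketing concentrations, or set to the highest concentration if not reached. Abbreviation: GI50, concentration required for 50% inhibition of growth. TGI: total growth inhibition.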

Consider `CC1=C(C(=O)Nc2cc(=O)n(C)c(=O)n2C)C(c2ccco2)C(C(=O)Nc2cc(=O)n(C)c(=O)n2C)=C(C)N1`, for which the TGI with DMS 114 small cell lung, with LXFL 529 NSCLC, in the test with M19-MEL melanoma, in the test on RXF-631 renal, in the test on SNB-78 CNS and in the test with XF 498 CNS was greater than 100 µM throughout.

In the test on MDA-N, `COc1ccc(-c2cc3c(c4cc(OC)ccc24)C(=O)OC3=O)cc1` had a TGI greater than 100 µM.

`NC(=O)C(=O)N/N=C1\C(=O)N(c2ccc(Cl)cc2Cl)C(=O)C1C(=O)Nc1ccc(Cl)cc1Cl` (stereo not drawn): the TGI in the test with DMS 114 small cell lung, with DMS 273 small cell lung, in the test on HOP-18 NSCLC, in the test on LXFL 529 NSCLC, in the test on M19-MEL melanoma and in the test on SNB-78 CNS was greater than 100 µM in each case. This molecule also yielded a TGI with XF 498 CNS greater than 100 µM.

For `O=C(NCCCCNc1cccccc1=O)OCc1ccccc1`, the TGI in the test with DMS 114 small cell lung, in the test on DMS 273 small cell lung, with HOP-18 NSCLC, in the test with LXFL 529 NSCLC, with M19-MEL melanoma and in the test with RXF-631 renal was greater than 100 µM throughout. Also, the TGI in the test with SNB-78 CNS was greater than 100 µM.

On to `COC(=O)NC(=O)c1cn(C2OC(CO)C(O)C2O)c(=O)[nH]c1=O` (stereo not drawn), for which the TGI in the test with LXFL 529 NSCLC, in the test on M19-MEL melanoma and in the test with SNB-78 CNS was greater than 100 µM in each case.

Take `N.N.N.N.[Co+3].[N-]=[N+]=[N-].[N-]=[N+]=[N-].[N-]=[N+]=[N-]`: the GI50 in the test on DMS 273 small cell lung, in the test on LXFL 529 NSCLC and in the test with SNB-78 CNS was greater than 100 µM in each case. Moreover, the TGI with DMS 273 small cell lung, in the test on LXFL 529 NSCLC and in the test on SNB-78 CNS was greater than 100 µM throughout.

Take `C=C(C)[C@@H]1CC[C@]2(C)CC[C@]3(C)[C@H](CC[C@@H]4[C@@]5(C)CC[C@H](O)C(C)(C)[C@@H]5CC[C@]43C)[C@@H]12`: the TGI with DMS 114 small cell lung, with DMS 273 small cell lung, in the test on LXFL 529 NSCLC, in the test on M19-MEL melanoma, with MDA-N and in the test on XF 498 CNS was greater than 100 µM in each case.

As to `O=C1CC(O)CC(=O)C1=C(O)CCCCCCCCCCc1ccccc1` (stereo not drawn), the TGI in the test on DMS 114 small cell lung, in the test on DMS 273 small cell lung, in the test with HOP-18 NSCLC, in the test on LXFL 529 NSCLC, in the test on M19-MEL melanoma and in the test on RXF-631 renal was greater than 100 µM throughout. In addition, the TGI in the test on SNB-78 CNS and in the test with XF 498 CNS was greater than 100 µM throughout.

In the case of `CNC(=O)Nc1nc2ccc([N+](=O)[O-])cc2[nH]1`, the TGI with MDA-N was greater than 100 µM.

`CCOc1cccc(/C=N/N=C2\C(=O)Nc3c(Cl)cc(Cl)cc32)c1O` displayed a TGI in the test with MDA-N greater than 100 µM.

Turning to `COc1ccc(C23C(=O)c4ccccc4N2O[C@H]2C(=O)N(c4ccccc4)C(=O)[C@H]23)cc1` (stereo partly drawn), the TGI with DMS 114 small cell lung, in the test on DMS 273 small cell lung, in the test with HOP-18 NSCLC, with LXFL 529 NSCLC, in the test with M19-MEL melanoma and in the test on RXF-631 renal was greater than 100 µM in each case. Also, the TGI with SNB-78 CNS and with XF 498 CNS was greater than 100 µM each time.

Regarding `C=C1C(=O)O[C@@H]2C[C@@H](C)[C@@H]3C=CC(=O)[C@@]3(C)[C@@H](O)[C@H]12`, the TGI came to 3.84 µM in the test with DMS 114 small cell lung; 4.48 µM in the test with DMS 273 small cell lung; 3.53 µM in the test with HOP-18 NSCLC; 1.68 µM in the test with LXFL 529 NSCLC; 20.6 µM in the test on M19-MEL melanoma; 5.66 µM in the test with MDA-N.

Regarding `N.N.N.N.N.NC(=O)c1nn[n-]n1.[Cl-].[Co+3]`, the GI50 with DMS 273 small cell lung, with HOP-18 NSCLC, in the test with LXFL 529 NSCLC and with SNB-78 CNS was greater than 100 µM in each case. In addition, the TGI with DMS 273 small cell lung, with HOP-18 NSCLC, with LXFL 529 NSCLC and with SNB-78 CNS was greater than 100 µM each time.

Turning to `O=C(COc1ccc(Cl)cc1)N1N=C(c2ccc(Cl)cc2)CC1(O)c1ccccc1` (stereo not drawn), the TGI in the test on DMS 114 small cell lung is greater than 100 µM; in the test on DMS 273 small cell lung, 33.1 µM; in the test on HOP-18 NSCLC, greater than 100 µM; in the test with LXFL 529 NSCLC, greater than 100 µM; in the test with M19-MEL melanoma it was greater than 63.4 µM; with SNB-78 CNS, greater than 56.7 µM. For the same molecule, the TGI in the test with XF 498 CNS is greater than 100 µM.

As to `CC1(C)O[C@H]2[C@H](O)C[C@](O)(CO)C[C@H]2O1`, the TGI with DMS 114 small cell lung, with DMS 273 small cell lung, in the test on LXFL 529 NSCLC, in the test on M19-MEL melanoma, with RXF-631 renal and in the test with SNB-78 CNS was greater than 100 µM in each case.

Regarding `O=C(O)CCN(CCCCN(CCC(=O)O)CCC(=O)O)CCC(=O)O`, the TGI with DMS 114 small cell lung, in the test with DMS 273 small cell lung, in the test on HOP-18 NSCLC, with LXFL 529 NSCLC, in the test on M19-MEL melanoma and in the test with XF 498 CNS was greater than 100 µM each time.

Turning to `Cc1c[n+](=O)c2ccccc2n1[O-]`, the TGI in the test with MDA-N is greater than 100 µM.

Consider `Cc1cc(CC(=O)NCCO)n(CCO)c(=O)c1`, for which the TGI in the test on DMS 114 small cell lung, in the test on DMS 273 small cell lung, in the test with HOP-18 NSCLC, in the test on LXFL 529 NSCLC, in the test on M19-MEL melanoma and in the test on RXF-631 renal was greater than 100 µM in each case. Moreover, the TGI with SNB-78 CNS and in the test on XF 498 CNS was greater than 100 µM throughout.

Consider `C[C@]12CC[C@@H]3c4ccc(OC(=O)N(CCCl)CCCl)cc4CC[C@H]3[C@@H]1CC[C@@H]2O`, for which the TGI was determined as 24.2 µM in the test with DMS 273 small cell lung; 14 µM with HOP-18 NSCLC; 0.254 µM with M19-MEL melanoma; 0.276 µM with SN12K1 renal; 17.3 µM in the test on SNB-78 CNS.

On to `CCOC(=O)C12CCCC1(O)N(NC(=O)OC(C)(C)C)C(C)=C2C(=O)OC` (stereo not drawn), for which the TGI in the test on DMS 114 small cell lung, in the test on DMS 273 small cell lung, in the test with HOP-18 NSCLC, in the test on LXFL 529 NSCLC, in the test on M19-MEL melanoma and in the test with RXF-631 renal was greater than 100 µM throughout. Further, the TGI with SNB-78 CNS and in the test on XF 498 CNS was greater than 100 µM in each case.

Consider `COc1ccc(/C=N/N=C(\N)NO)cc1O`, for which the TGI in the test on DMS 114 small cell lung, in the test on HOP-18 NSCLC, in the test on LXFL 529 NSCLC and in the test with SNB-78 CNS was greater than 100 µM throughout.
